Experiments:
Format in all cases: cell-based
[1] = biological target: T1, Nuclear factor erythroid 2-related factor 2 (Homo sapiens) (UniProt Q16236); assay: Activation of Nrf2 in human HepG2-ARE-C8 cells assessed as upregulation of ARE level at 2 uM after 12 hrs by luciferase reporter gene assay relative to control
T1 sequence (whole entry): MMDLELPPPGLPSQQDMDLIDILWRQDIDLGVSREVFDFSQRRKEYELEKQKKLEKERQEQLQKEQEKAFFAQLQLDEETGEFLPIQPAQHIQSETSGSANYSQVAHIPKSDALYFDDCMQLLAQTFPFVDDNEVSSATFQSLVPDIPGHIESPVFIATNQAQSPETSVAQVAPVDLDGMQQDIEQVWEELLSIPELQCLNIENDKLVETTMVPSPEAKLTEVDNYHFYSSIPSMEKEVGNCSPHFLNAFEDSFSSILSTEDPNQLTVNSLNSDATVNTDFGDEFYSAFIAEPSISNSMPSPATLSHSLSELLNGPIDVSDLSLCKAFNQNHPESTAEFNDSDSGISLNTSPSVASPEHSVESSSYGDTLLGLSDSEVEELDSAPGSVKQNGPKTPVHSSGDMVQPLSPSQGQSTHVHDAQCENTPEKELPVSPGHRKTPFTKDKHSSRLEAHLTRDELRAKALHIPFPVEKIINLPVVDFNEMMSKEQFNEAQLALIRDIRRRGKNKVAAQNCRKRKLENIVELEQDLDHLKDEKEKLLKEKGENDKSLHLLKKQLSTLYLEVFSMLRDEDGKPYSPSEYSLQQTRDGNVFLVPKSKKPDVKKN

[2] = biological target: T1, Nuclear factor erythroid 2-related factor 2 (Homo sapiens); assay: Activation of Nrf2 in human HepG2-ARE-C8 cells assessed as upregulation of ARE level at 80 uM after 12 hrs by luciferase reporter gene assay relative to control
[3] = biological target: T1, Nuclear factor erythroid 2-related factor 2 (Homo sapiens); assay: Activation of Nrf2 in human HepG2-ARE-C8 cells assessed as upregulation of ARE level at 0.2 uM after 12 hrs by luciferase reporter gene assay relative to control
[4] = biological target: T1, Nuclear factor erythroid 2-related factor 2 (Homo sapiens); assay: Activation of Nrf2 in human HepG2-ARE-C8 cells assessed as upregulation of ARE level at 40 uM after 12 hrs by luciferase reporter gene assay relative to control
[5] = biological target: T1, Nuclear factor erythroid 2-related factor 2 (Homo sapiens); assay: Activation of Nrf2 in human HepG2-ARE-C8 cells assessed as upregulation of ARE level at 0.02 uM after 12 hrs by luciferase reporter gene assay relative to control
[6] = biological target: T1, Nuclear factor erythroid 2-related factor 2 (Homo sapiens); assay: Activation of Nrf2 in human HepG2-ARE-C8 cells assessed as upregulation of ARE level at 160 uM after 12 hrs by luciferase reporter gene assay relative to control
HCT-116 = assay: Cytotoxicity against human HCT116 cells assessed as reduction of cell proliferation at 80 uM after 24 hrs by MTT assay; conditions: hct-116, 24 h
[7] = biological target: T1, Nuclear factor erythroid 2-related factor 2 (Homo sapiens); assay: Activation of Nrf2 in human HepG2-ARE-C8 cells assessed as upregulation of ARE level at 20 uM after 12 hrs by luciferase reporter gene assay relative to control

Row | fold change (FC) [1] | fold change (FC) [2] | fold change (FC) [3] | fold change (FC) [4] | fold change (FC) [5] | fold change (FC) [6] | fold change (FC) [7] | SMILES | Activity (HCT-116)
1 | 4.35 | 6.61 | 2.04 | 16.9 | 1.61 | 7.09 | 20.5 | c1ccc2nc(-c3nc(-c4ccc5nc[nH]c5c4)no3)ccc2c1 | Non-toxic
2 | 1.77 | 11.6 | 1.5 | 11 | 1.22 | 8.88 | 10.2 | c1cc2ccc(-c3nc(-c4ccc5nc[nH]c5c4)no3)cc2[nH]1 | Non-toxic
3 | 4.74 | 16.5 | 1.56 | 21.8 | 1.43 | 11.5 | 11.6 | O=[N+]([O-])c1cccc(-c2nc(-c3ccc4nc[nH]c4c3)no2)c1 | Non-toxic
4 | 3.16 | 12.4 | 1.95 | 14.4 | 1.79 | 8.38 | 12.4 | COc1cccc(-c2nc(-c3ccc4nc[nH]c4c3)no2)c1 | Non-toxic
5 | 4.84 | 17.3 | 1.94 | 10.4 | 1.44 | 8.99 | 14.2 | Cc1cccc(-c2nc(-c3ccc4nc[nH]c4c3)no2)c1 | Non-toxic
6 | 1.24 | 5.27 | 1.25 | 2.14 | 1.18 | 8.46 | 1.41 | CC(C)(C)C1=CC(=O)C=CC1=O | 
7 | 2.84 | 4.35 | 1.59 | 11.6 | 1.25 | 1.46 | 8.57 | COc1ccc(-c2nc(-c3ccc4nc[nH]c4c3)no2)c(OC)c1 | Non-toxic
8 | 7.78 | 12.7 | 3.29 | 16.6 | 2.11 | 9.22 | 20.6 | Cc1ccc(-c2nc(-c3ccc4nc[nH]c4c3)no2)cc1 | Non-toxic
9 | 3.27 | 4.92 | 2.72 | 13 | 1.43 | 5.52 | 9.84 | COc1ccc(-c2nc(-c3ccc4nc[nH]c4c3)no2)cc1 | Non-toxic
10 | 1.62 | 8.46 | 1.39 | 10.7 | 1.24 | 5.85 | 5.96 | COc1ccccc1-c1nc(-c2ccc3nc[nH]c3c2)no1 | Non-toxic
11 | 2.19 | 8.81 | 1.65 | 8.67 | 1.56 | 7.35 | 6.23 | Oc1ccc(-c2nc(-c3ccc4nc[nH]c4c3)no2)cc1 | Non-toxic
12 | 2.41 | 13.9 | 2.24 | 3.24 | 1.31 | 22.5 | 3.23 | COc1cc(-c2nc(-c3ccc4nc[nH]c4c3)no2)cc(OC)c1OC | Non-toxic
13 | 10.9 | 14.8 | 2.08 | 37.6 | 1.55 | 12 | 30.8 | CCCCc1ccc(-c2nc(-c3ccc4nc[nH]c4c3)no2)cc1 | Non-toxic
14 | 3.21 | 3.7 | 2.96 | 4.24 | 1.7 | 5.2 | 4.48 | COc1ccc(OC)c(-c2nc(-c3ccc4nc[nH]c4c3)no2)c1 | Non-toxic
15 | 1.42 | 3.16 | 1.36 | 0.91 | 1.26 | 8.05 | 0.87 | N#Cc1cccc(-c2nc(-c3ccc4nc[nH]c4c3)no2)c1 | Non-toxic
16 | 4.27 | 5.99 | 2.54 | 4.95 | 1.91 | 10.6 | 4.36 | c1cc(-c2nc(-c3ccc4nc[nH]c4c3)no2)ccn1 | Non-toxic
17 | 2.46 | 1.39 | 1.48 | 1.32 | 1.36 | 2.09 | 1.33 | N#Cc1ccccc1-c1nc(-c2ccc3nc[nH]c3c2)no1 | Non-toxic
18 | 1.52 | 15 | 1.54 | 10.7 | 1.18 | 11 | 2 | c1ccc(-c2ccc(-c3nc(-c4ccc5nc[nH]c5c4)no3)cc2)cc1 | Non-toxic
19 | 2.56 | 4.82 | 1.75 | 5.88 | 1.37 | 3.69 | 9.34 | CCc1ccc(-c2nc(-c3ccc4nc[nH]c4c3)no2)cc1 | Non-toxic
20 | 1.1 |  | 1 | 2.97 | 0.82 |  | 1.65 | COC(=O)/C=C/C(=O)OC | 
21 | 18.2 | 3.33 | 3.41 | 8.41 | 2.03 | 1.75 | 17.4 | Cn1cnc2ccc(-c3noc(-c4ccccc4)n3)cc21 | Non-toxic
22 | 3.52 | 18.5 | 1.59 | 10.8 | 1.4 | 7.85 | 10.9 | Cc1ccccc1-c1nc(-c2ccc3nc[nH]c3c2)no1 | Non-toxic
23 | 2.44 | 4.05 | 1.71 | 4.18 | 1.68 | 3.93 | 8.62 | Oc1cccc(-c2nc(-c3ccc4nc[nH]c4c3)no2)c1 | Non-toxic
24 | 1.43 | 1.37 | 1.4 | 1.45 | 1.44 | 2.44 | 1.39 | Cn1cnc2ccc(-c3noc(-c4ccc5ccccc5c4)n3)cc21 | Non-toxic
25 | 1.35 | 10 | 1.25 | 11.9 | 1.22 | 12.7 | 8.12 | N#Cc1ccc(-c2nc(-c3ccc4nc[nH]c4c3)no2)cc1 | Non-toxic
26 | 5.09 | 2.65 | 3.42 | 7.51 | 1.06 | 2.55 | 9.49 | c1ccc(-c2nc(-c3ccc4nc[nH]c4c3)no2)nc1 | Non-toxic
27 | 2.25 | 7.79 | 1.73 | 6.16 | 1.48 | 10 | 6.07 | CCCc1ccc(-c2nc(-c3ccc4nc[nH]c4c3)no2)cc1 | Non-toxic
28 | 13.9 | 3.45 | 8.04 | 5.65 | 2.56 | 2.94 | 10.5 | FC(F)(F)c1cccc(-c2nc(-c3ccc4nc[nH]c4c3)no2)c1 | Non-toxic
